Square brackets hold non-standard residues; d marks the D form. Peptide text beside a SMILES is read from it. * marks the point of attachment. NHPhenethyl = c1ccc(CCN*)cc1; NMeM = CN[C@@H](CCSC)C(=O)O; NMeV = CN[C@H](C(=O)O)C(C)C
Tests used:
[1] = tested on: Trypanosoma brucei rhodesiense; assay: Antitrypanosomal activity against Trypanosoma brucei rhodesiense STIB900 bloodstream forms after 72 hrs by Alamar blue staining-based fluorometric analysis; format: functional, organism-based; conditions: STIB900, 72 h
[2] = tested on: L6; assay: Cytotoxicity against rat L6 cells assessed as reduction in cell viability after 72 hrs by Alamar blue staining-based fluorometric analysis; conditions: L6, 72 h
[3] = tested on: Plasmodium falciparum; assay: Antiplasmodial activity against Plasmodium falciparum NF54 erythrocytic stage assessed as reduction in [3H]hypoxanthine incorporation preincubated for 48 hrs followed by [3H]hypoxanthine addition and measured after 24 hrs by liquid scintillation counting method; format: functional, organism-based
[4] = tested on: Trypanosoma cruzi; assay: Antiparasitic activity against Trypanosoma cruzi Tulahuen C4 trypomastigotes infected in rat L6 cells after 96 hrs by CPRG/Nonidet reagent based photometric analysis; format: functional, organism-based; conditions: Tulahuen C4, L6, 96 h
[5] = tested on: Leishmania donovani; assay: Antileishmanial activity against Leishmania donovani MHOM/ET/67/L82 axenic amastigotes after 72 hrs by alamar blue staining based fluorescence assay; format: functional, organism-based; conditions: MHOM/ET/67/L82, 72 h

Row | SMILES | IC50 [1] | IC50 [2] | IC50 [3] | IC50 [4] | IC50 [5]
1 | CN[C@H](C(=O)N[C@H](C(=O)N(C)[C@H](C(=O)N(C)[C@H](C(=O)N(C)[C@@H](CCSC)C(=O)NCCc1ccccc1)C(C)C)C(C)C)C(C)C)C(C)C (H-[NMeV]V[NMeV][NMeV][NMeM]-NHPhenethyl) | 4.3 µM | 71.2 µM | 6.6 µM | 53 µM | > 100 µM
2 | CN[C@H](C(=O)N[C@H](C(=O)N(C)[C@H](C(=O)N(C)[C@@H](CCSC)C(=O)NCCc1ccccc1)C(C)C)C(C)C)C(C)C (H-[NMeV]V[NMeV][NMeM]-NHPhenethyl) | 12.3 µM | > 100 µM | 10.9 µM | 75 µM | > 100 µM
3 | CSCC[C@@H](C(=O)N(C)[C@H](C(=O)N(C)[C@H](C(=O)N(C)[C@H](C(=O)NCCc1ccccc1)C(C)C)C(C)C)C(C)C)N(C)C(=O)[C@@H](N)C(C)C (H-V[NMeM][NMeV][NMeV][NMeV]-NHPhenethyl) | 2.7 µM | 23.9 µM | 2.3 µM | 12.6 µM | 92.3 µM
4 | COc1cc([C@@H]2c3cc4c(cc3[C@H](O)[C@H]3COC(=O)[C@H]23)OCO4)cc(OC)c1OC [PODOFILOX] |  | 0.01 µM |  |  | 
5 | CN[C@H](C(=O)N[C@H](C(=O)N(C)[C@H](C(=O)N(C)[C@H](C(=O)NCCc1ccccc1)C(C)C)C(C)C)C(C)C)C(C)C (H-[NMeV]V[NMeV][NMeV]-NHPhenethyl) | 10.5 µM | 89.1 µM | 5.3 µM | 69.4 µM | > 100 µM
6 | CSCC[C@@H](C(=O)N(C)[C@H](C(=O)N(C)[C@H](C(=O)NCCc1ccccc1)C(C)C)C(C)C)N(C)C(=O)[C@@H](N)C(C)C (H-V[NMeM][NMeV][NMeV]-NHPhenethyl) | 8.5 µM | 75.2 µM | 7.9 µM | 62.9 µM | > 100 µM
7 | CN[C@H](C(=O)N[C@H](C(=O)N(C)[C@H](C(=O)N(C)[C@H](C(=O)N(C)[C@H](C(=O)NCCc1ccccc1)C(C)C)C(C)C)C(C)C)C(C)C)C(C)C (H-[NMeV]V[NMeV][NMeV][NMeV]-NHPhenethyl) | 1.4 µM | 56.2 µM | 4.6 µM | 26.2 µM | > 100 µM
8 | CSCC[C@@H](C(=O)N[C@H](C(=O)N(C)[C@H](C(=O)N(C)[C@H](C(=O)NCCc1ccccc1)C(C)C)C(C)C)C(C)C)N(C)C(=O)[C@@H](N)C(C)C (H-V[NMeM]V[NMeV][NMeV]-NHPhenethyl) | 7.3 µM | 70.8 µM | 3.2 µM | 14.2 µM | 18.8 µM
9 | O=C(Cn1ccnc1[N+](=O)[O-])NCc1ccccc1 [BENZNIDAZOLE] |  |  |  | 2.8 µM | 
10 | CN[C@H](C(=O)N[C@H](C(=O)N(C)[C@@H](CCSC)C(=O)N(C)[C@H](C(=O)N(C)[C@H](C(=O)NCCc1ccccc1)C(C)C)C(C)C)C(C)C)C(C)C (H-[NMeV]V[NMeM][NMeV][NMeV]-NHPhenethyl) | 5.7 µM | 31.3 µM | 4.1 µM | 25.4 µM | > 100 µM

From ChEMBL document CHEMBL4411264, “Methionine-Containing Rhabdopeptide/Xenortide-like Peptides from Heterologous Expression of the Biosynthetic Gene Cluster kj12ABC in Escherichia coli” (J Nat Prod, 2018)
